The record followed here is ChEMBL document CHEMBL1130492 (Bioorg Med Chem Lett, 1997).

A value given as a limit tells only on which side of the number the result lay.

For data set [1], the species on record is Canis familiaris. Briefly: Percent of radioactive dose in urine and feces excreted by 0-24 hr in dogs; NA is <10% inhibition at 1 uM for binding data. It is filed as ADME, organism-based, Canis lupus familiaris. The conditions noted are these: dog, in vivo.
Data set [2] is filed under the species Rattus norvegicus. Briefly: Percent of radioactive dose in urine and feces excreted in 0-24 hr by rats; NA is <10% inhibition at 1 uM for binding data. It is filed as ADME, organism-based. The conditions noted are these: in vivo.
A further data set has as its target D(2) dopamine receptor (Rattus norvegicus, UniProt P61169). Briefly: In vitro ability to displace Dopamine D2 receptor binding to rat striatal membranes in competition experiments against 3H-spiperone, expressed as Ki. On the set-up: species or system Striatum, Membrane.
For data set [3], the system named is Rattus norvegicus. Briefly: (§1) In vivo antipsychotic activity determined for dose ip by CAR (conditioned avoidance response) assay. Also on record: unit not given here. It is filed as functional.
Data set [4] has as its target T1, 5-hydroxytryptamine receptor 1A (Rattus norvegicus, UniProt P19327).
T1 sequence (P19327 whole entry): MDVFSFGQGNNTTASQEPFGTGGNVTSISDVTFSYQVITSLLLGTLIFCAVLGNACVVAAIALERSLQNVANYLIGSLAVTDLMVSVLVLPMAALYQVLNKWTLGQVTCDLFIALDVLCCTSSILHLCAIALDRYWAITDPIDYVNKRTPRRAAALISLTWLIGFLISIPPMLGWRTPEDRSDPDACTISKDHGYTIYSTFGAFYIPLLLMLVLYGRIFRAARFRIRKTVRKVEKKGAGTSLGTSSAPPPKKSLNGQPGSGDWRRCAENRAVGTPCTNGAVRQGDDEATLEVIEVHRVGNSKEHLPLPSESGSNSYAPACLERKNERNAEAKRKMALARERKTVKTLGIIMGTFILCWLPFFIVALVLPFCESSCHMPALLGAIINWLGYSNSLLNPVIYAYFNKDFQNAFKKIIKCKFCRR
Briefly: In vitro ability to displace serotonin 5-HT1A receptor binding to rat cerebral cortex in competition experiments against [3H]8-(hydroxy)dipropyl aminotetralin at 15 mg/kg concentration.

Data set [5] concerns the target T2, Adrenergic receptor alpha-1 (Rattus norvegicus, UniProt P15823+P23944+P43140).
T2 sequence (P15823 whole entry): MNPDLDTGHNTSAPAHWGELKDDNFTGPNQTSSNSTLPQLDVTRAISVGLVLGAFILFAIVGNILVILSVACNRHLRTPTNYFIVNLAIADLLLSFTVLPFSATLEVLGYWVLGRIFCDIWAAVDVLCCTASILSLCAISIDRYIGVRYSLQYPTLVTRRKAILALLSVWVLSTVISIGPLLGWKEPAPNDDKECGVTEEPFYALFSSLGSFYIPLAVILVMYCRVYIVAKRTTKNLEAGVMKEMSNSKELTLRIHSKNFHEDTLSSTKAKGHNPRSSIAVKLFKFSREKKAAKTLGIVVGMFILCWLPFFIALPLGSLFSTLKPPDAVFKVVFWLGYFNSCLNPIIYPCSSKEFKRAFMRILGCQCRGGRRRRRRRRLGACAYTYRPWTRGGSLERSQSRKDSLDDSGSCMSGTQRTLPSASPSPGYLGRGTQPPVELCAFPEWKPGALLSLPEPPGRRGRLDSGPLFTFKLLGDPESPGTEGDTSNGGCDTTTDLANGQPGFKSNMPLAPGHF
T2 sequence (P23944 whole entry): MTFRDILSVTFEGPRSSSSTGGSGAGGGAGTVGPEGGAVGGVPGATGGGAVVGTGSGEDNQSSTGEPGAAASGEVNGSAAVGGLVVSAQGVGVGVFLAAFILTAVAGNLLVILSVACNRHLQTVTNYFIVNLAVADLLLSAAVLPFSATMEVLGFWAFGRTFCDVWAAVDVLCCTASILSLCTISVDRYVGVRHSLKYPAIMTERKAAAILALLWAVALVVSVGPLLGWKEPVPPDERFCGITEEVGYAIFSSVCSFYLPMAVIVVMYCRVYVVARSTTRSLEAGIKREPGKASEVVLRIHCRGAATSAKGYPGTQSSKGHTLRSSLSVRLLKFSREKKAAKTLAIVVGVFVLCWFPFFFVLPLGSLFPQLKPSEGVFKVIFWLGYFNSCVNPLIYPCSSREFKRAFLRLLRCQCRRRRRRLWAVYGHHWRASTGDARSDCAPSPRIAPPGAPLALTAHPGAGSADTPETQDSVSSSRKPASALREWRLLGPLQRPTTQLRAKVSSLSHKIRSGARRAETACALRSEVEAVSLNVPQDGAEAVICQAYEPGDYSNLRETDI
T2 sequence (P43140 whole entry): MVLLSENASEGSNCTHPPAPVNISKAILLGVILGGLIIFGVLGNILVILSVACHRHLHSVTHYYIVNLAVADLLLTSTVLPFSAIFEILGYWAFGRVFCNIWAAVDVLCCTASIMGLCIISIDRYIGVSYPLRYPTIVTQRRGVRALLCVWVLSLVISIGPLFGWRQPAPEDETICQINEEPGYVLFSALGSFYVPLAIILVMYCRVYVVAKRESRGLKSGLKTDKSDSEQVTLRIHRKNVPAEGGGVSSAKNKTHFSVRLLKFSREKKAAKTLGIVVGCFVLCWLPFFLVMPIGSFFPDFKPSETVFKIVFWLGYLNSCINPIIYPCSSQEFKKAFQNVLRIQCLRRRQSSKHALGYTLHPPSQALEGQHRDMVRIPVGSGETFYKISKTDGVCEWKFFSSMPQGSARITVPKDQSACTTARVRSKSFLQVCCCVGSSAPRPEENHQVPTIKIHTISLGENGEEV
Briefly: In vitro ability to displace Alpha-1 adrenergic receptor binding to rat cerebral cortex in competition experiments against [3H]prazosin […], expressed as Ki.

The species named for data set [6] is Canis familiaris. Briefly: Percent of radioactive dose in urine and faeces excreted in 0-24 hr by dogs. It is filed as ADME, organism-based, Canis lupus familiaris, Urine/Feces. The conditions noted are these: dog, in vivo.
The species entered for data set [7] is Rattus norvegicus. Briefly: Percent of radioactive dose in urine and faeces excreted in 0-24 hr by rats. Conditions: in vivo. It is filed as ADME, organism-based, Urine/Feces.
Data set [8] relates to Rattus norvegicus. The data set is described as §1. It is filed as functional.
The species named for data set [9] is Canis familiaris. Briefly: Percent of radioactive dose in urine and feces excreted in 0-24 hr by dogs; NA is <10% inhibition at 1 uM for binding data. It is filed as ADME, organism-based, Canis lupus familiaris. Conditions: dog, in vivo.
The species named for data set [10] is Canis familiaris. Briefly: Percent of radioactive dose in urine and feces excreted by 0-24 hr in dogs. It is filed as ADME, organism-based, Canis lupus familiaris. The conditions noted are these: dog, in vivo.
The species named for data set [11] is Rattus norvegicus. Briefly: Percent of radioactive dose in urine and feces excreted in 0-24 hr by rats. It is filed as ADME, organism-based. Conditions: in vivo.
The target in data set [12] is T1, 5-hydroxytryptamine receptor 1A. Briefly: In vitro ability to displace serotonin 5-HT1A receptor binding to rat cerebral cortex in competition experiments against [3H]8-(hydroxy)dipropyl aminotetralin at 1 mg/kg concentration.
For data set [13], the target named is T2, Adrenergic receptor alpha-1. Briefly: In vitro ability to displace Alpha-1 adrenergic receptor binding to rat cerebral cortex in competition experiments against [3H]-prazosin, expressed as Ki.
The target of data set [14] is D(2) dopamine receptor (Rattus norvegicus) (UniProt P61169). Briefly: In vitro ability to displace Dopamine D2 receptor binding to rat striatal membranes in competition experiments against [3H]spiperone at 1 uM concentration. Conditions: Striatum, Membrane.
Sequence of D(2) dopamine receptor (Rattus norvegicus) (P61169 whole entry): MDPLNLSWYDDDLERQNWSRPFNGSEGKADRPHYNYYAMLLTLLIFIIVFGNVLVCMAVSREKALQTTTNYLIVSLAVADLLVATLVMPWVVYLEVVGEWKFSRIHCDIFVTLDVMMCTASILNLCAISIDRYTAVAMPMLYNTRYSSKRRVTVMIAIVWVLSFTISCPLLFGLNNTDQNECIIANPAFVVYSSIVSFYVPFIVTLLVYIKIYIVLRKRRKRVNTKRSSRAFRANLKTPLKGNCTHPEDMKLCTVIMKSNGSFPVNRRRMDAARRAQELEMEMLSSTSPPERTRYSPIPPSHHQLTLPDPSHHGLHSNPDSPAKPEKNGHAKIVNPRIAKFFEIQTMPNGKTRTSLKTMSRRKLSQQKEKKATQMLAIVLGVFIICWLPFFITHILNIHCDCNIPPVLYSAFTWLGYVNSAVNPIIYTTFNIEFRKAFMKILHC
Data set [15] has as its target T3, 5-hydroxytryptamine receptor 1A (Rattus norvegicus) (UniProt P19327).
T3 sequence (whole entry): T1 sequence (P19327 whole entry)
Briefly: In vitro ability to displace serotonin 5-HT1A receptor binding to rat cerebral cortex in competition experiments against [3H]8-(hydroxy)dipropyl aminotetralin at 1 uM concentration. It is filed as tissue-based.

For data set [16], the target named is Adrenergic receptor alpha-1 (Rattus norvegicus) (UniProt P15823+P23944+P43140). Briefly: In vitro ability to displace Alpha-1 adrenergic receptor binding to rat cerebral cortex in competition experiments against [3H]prazosin at 1 µM, expressed as % inhibition.

Sequence of D(2) dopamine receptor (P61169 whole entry): as above

What is called Ki is the dissociation constant of the complex between target and ligand, obtained from inhibition or displacement. On to `CC(C)Oc1ccccc1N1CCN(Cc2cccc(C(=O)N3CCCC(O)C3)c2)CC1` (stereo not given), for which the Dose in the data set listed under Canis familiaris [1] and in the data set filed under Rattus norvegicus [2] was below 2% in each case. Besides, the inhibition constant Ki was 8.8 nM on D(2) dopamine receptor, 6.8 nM in data set [4] and 21 nM in data set [5]. This molecule registered a CAR in the data set with Rattus norvegicus [3] of -96.

With `CC(C)Oc1ccccc1N1CCN(Cc2cccc(C(=O)N3CCCCC3)c2)CC1` [MAZAPERTINE], the Dose stood at 5% in the data set filed under Canis familiaris [6] and 4% in the data set filed under Rattus norvegicus [7]. In the data set on Rattus norvegicus [8], this molecule gave a CAR of -92.

Turning to `CC(C)Oc1ccccc1N1CCN(Cc2cccc(C(=O)N3CCCCC3O)c2)CC1` (stereo not given), the Dose in the data set filed under Canis familiaris [9] and in the data set listed under Rattus norvegicus [2] was below 2% in each case. For the same molecule, the inhibition constant Ki came out at 9 nM on D(2) dopamine receptor, 3 nM in [4] and 4 nM in data set [5]. For the same molecule, the CAR in the data set with Rattus norvegicus [3] was -64.

Consider `CC(C)Oc1ccccc1N1CCN(Cc2cccc(C(=O)N3CCC(O)CC3)c2)CC1`, for which the Dose in the data set filed under Canis familiaris [10] and in the data set listed under Rattus norvegicus [11] was 3% in each case. For the same molecule, the Ki on D(2) dopamine receptor is 11 nM; in data set [12], 7.8 nM; in data set [13], 3.6 nM. This molecule had a CAR in the data set on Rattus norvegicus [3] of -76.

By inhibition is commonly meant the percentage by which the read-out fell short of the control. On to `O=C(O)c1cccc(C(=O)N2CCCCC2)c1`, for which the Dose in the data set filed under Canis familiaris [10] was found to be 8%; in the data set filed under Rattus norvegicus [11], 11%. Further, the inhibition in [14], in data set [15] and in [16] was below 10% each time. Moreover, in the data set on Rattus norvegicus [3], the CAR is recorded as -3.

On to `CC(C)Oc1cc(O)ccc1N1CCN(Cc2cccc(C(=O)N3CCCCC3)c2)CC1`, for which the Dose in the data set filed under Canis familiaris [10] worked out at 3%; in the data set filed under Rattus norvegicus [11], 13%. In the data set on Rattus norvegicus [3], this molecule yielded a CAR of -10.
